Measurements: patent publication US11795177B2, “Substituted quinoline analogs as aldehyde dehydrogenase 1A1 (ALDH1A1) inhibitors” (THE UNITED STATES OF AMERICA, AS REPRESENTED BY THE …, priority 2017, dated 2023)
Where a name gives a salt, the structure may show the parent alone.

Experiments:
MIA PaCa-2 cells = assay: MIA PaCa2 cell-based assay (1,536-well high-content imaging ALDEFLUOR assay); design: species or system human; conditions: Homo sapiens, 0.5 h, ALDEFLUOR BAAA substrate 500 nM, 30 minutes
Summary of the method: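 MIA PaCa-2 cells (1,000/well), plated overnight, given BAAA substrate (500 nM) plus Hoechst 33342 (0.5 nM), then compound (16-point, 1.4 nM–47.8 μM final; 0.5% DMSO). After 30 min at 37° C, ALDH activity imaged by high-content microscopy as BAA-retaining (FITC) cells versus Hoechst-stained nuclei.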

ALDH1A1 enzyme = molecular target: T1, ALDH1A1 enzyme (Homo sapiens, UniProt P00352); assay: ALDH1A1 enzymatic assay (in vitro); type: biochemical; conditions: ALDH1A1 enzyme 20 nM, NAD+ 1 mM, propionaldehyde 80 μM; read-out: ALDH1A1 IC50
T1 sequence (P00352 1-501): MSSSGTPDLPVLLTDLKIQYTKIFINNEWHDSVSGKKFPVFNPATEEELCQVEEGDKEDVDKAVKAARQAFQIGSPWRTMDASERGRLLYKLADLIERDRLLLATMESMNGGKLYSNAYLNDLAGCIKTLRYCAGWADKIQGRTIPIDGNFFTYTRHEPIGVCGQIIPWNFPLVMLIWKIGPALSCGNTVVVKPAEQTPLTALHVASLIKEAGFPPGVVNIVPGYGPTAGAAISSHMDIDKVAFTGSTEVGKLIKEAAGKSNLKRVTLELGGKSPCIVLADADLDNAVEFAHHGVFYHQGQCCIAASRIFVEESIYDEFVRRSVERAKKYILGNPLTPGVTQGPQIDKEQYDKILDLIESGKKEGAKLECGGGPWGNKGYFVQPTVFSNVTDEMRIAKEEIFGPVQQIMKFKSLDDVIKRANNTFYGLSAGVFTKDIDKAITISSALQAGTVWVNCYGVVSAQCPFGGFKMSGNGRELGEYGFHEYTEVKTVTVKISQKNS
Summary of the method: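 ALDH1A1 (20 nM final) in 100 mM HEPES pH 7.5, 0.01% Tween 20 was preincubated 15 min at RT with compound (968 pM–57.2 μM final), then started with 1 mM NAD+ and 80 μM propionaldehyde. NADH fluorescence (ex 340/em 450 nm) followed kinetically for 10 min; change normalized to no-inhibitor and no-enzyme controls for percent inhibition and curve fitting.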

With `O=C(c1cnc2ccc(F)cc2c1N1CCC2(CC1)COC2)N1CCN(C(=O)C2CC2)CC1` [Example 68, (4-(cyclopropanecarbonyl)piperazin-1-yl)(6-fluoro-4-(2-oxa-7-azaspiro[3.5]nonan-7-yl)quinolin-3-yl)methanone] the IC50 (MIA PaCa-2 cells) was greater than 10000 nM and the IC50 (ALDH1A1 enzyme) was 1000 to 10000 nM.

`CC(=O)C1(c2ccccc2)CCN(c2c(C(=O)N3CCN(C(=O)N(C)C)CC3)cnc3ccc(F)cc23)CC1` [Example 271, 4-(4-(4-acetyl-4-phenylpiperidin-1-yl)-6-fluoroquinoline-3-carbonyl)-N,N-dimethylpiperazine-1-carboxamide] gave an IC50 (MIA PaCa-2 cells) of less than 500 nM and an IC50 (ALDH1A1 enzyme) of less than 500 nM.

With `COc1ccc2ncc(C(=O)N3CCC(OC)CC3)c(N3CCC(OC)CC3)c2c1` [Example 4, (6-methoxy-4-(4-methoxypiperidin-1-yl)quinolin-3-yl)(4-methoxypiperidin-1-yl)methanone, TFA] the IC50 (MIA PaCa-2 cells) was 1000 to 10000 nM and the IC50 (ALDH1A1 enzyme) was less than 500 nM.

Work on `N#CC1(c2ccccc2)CCN(c2c(C(=O)N[C@H]3CC[C@H](O)CC3)cnc3ccc(F)cc23)CC1` [Cpd. 325, 4-(4-cyano-4-phenylpiperidin-1-yl)-6-fluoro-N-((1R,4R)-4-hydroxycyclohexyl)quinoline-3-carboxamide] yielded an IC50 (MIA PaCa-2 cells) of less than 500 nM and an IC50 (ALDH1A1 enzyme) of less than 500 nM.

In the case of `COc1c(F)cc2c(N3CCC4(CC3)OCCO4)c(C(=O)N3CCN(C(=O)C4CC4)CC3)cnc2c1F` [Example 123, (4-(cyclopropanecarbonyl)piperazin-1-yl)(6,8-difluoro-7-methoxy-4-(1,4-dioxa-8-azaspiro[4.5]decan-8-yl)quinolin-3-yl)methanone], the IC50 (MIA PaCa-2 cells) is reported as 1000 to 10000 nM and the IC50 (ALDH1A1 enzyme) is reported as less than 500 nM.

Compound `COc1ccc2c(N3CCC(C)(C#N)CC3)c(C(=O)N3CCN(S(=O)(=O)C4CC4)CC3)cnc2c1` [Example 106, 1-(3-(4-(cyclopropylsulfonyl)piperazine-1-carbonyl)-7-methoxyquinolin-4-yl)-4-methylpiperidine-4-carbonitrile] has an IC50 (MIA PaCa-2 cells) of 1000 to 10000 nM and an IC50 (ALDH1A1 enzyme) of less than 500 nM.

`CC(O)C1(c2ccccc2)CCN(c2c(C(=O)N3CCN(S(C)(=O)=O)CC3)cnc3ccc(F)cc23)CC1` (stereo not shown) [Example 253, (6-fluoro-4-(4-(1-hydroxyethyl)-4-phenylpiperidin-1-yl)quinolin-3-yl)(4-(methylsulfonyl)piperazin-1-yl)methanone] was tested, and the IC50 (MIA PaCa-2 cells) was greater than 10000 nM and the IC50 (ALDH1A1 enzyme) was less than 500 nM.

`C[C@@H]1CN(C(=O)c2cnc3ccc(F)cc3c2N2CCC(C)(C#N)CC2)CCN1C(=O)C1CC1` [Example 224, (R)-1-(3-(4-(cyclopropanecareonyl)-3-methylpiperazine-1-carbonyl)-6-fluoroquinolin-4-yl)-4-methylpiperidine-4-carbonitrile] was tested, and the IC50 (MIA PaCa-2 cells) was greater than 10000 nM and the IC50 (ALDH1A1 enzyme) was 1000 to 10000 nM.

Compound `N#CCC1CCN(c2c(C(=O)N3CCN(C(=O)C4CC4)CC3)cnc3ccc(F)cc23)CC1` [Example 213, 2-(1-(3-(4-(cyclopropanecarbonyl)piperazine-1-carbonyl)-6-fluoroquinolin-4-yl)piperidin-4-yl)acetonitrile] has an IC50 (MIA PaCa-2 cells) of 1000 to 10000 nM and an IC50 (ALDH1A1 enzyme) of 1000 to 10000 nM.

With `COc1ccc2ncc(C(=O)N3CCN(C(=O)C4CC4)CC3)c(N3CCN(C(C)=O)CC3)c2c1` [Example 23, 1-(4-(3-(4-(cyclopropanecarbonyl)piperazine-1-carbonyl)-6-methoxyquinolin-4-yl)piperazin-1-yl)ethanone] the IC50 (MIA PaCa-2 cells) was greater than 10000 nM and the IC50 (ALDH1A1 enzyme) was greater than 10000 nM.

With `CCNC(=O)N1CCN(C(=O)c2cnc3c(F)c(OC)c(F)cc3c2N2CCC(C)(C#N)CC2)CC1` [Example 147, 4-(4-(4-cyano-4-methylpiperidin-1-yl)-6,8-difluoro-7-methoxyquinoline-3-carbonyl)-N-ethylpiperazine-1-carboxamide] the IC50 (MIA PaCa-2 cells) was 1000 to 10000 nM and the IC50 (ALDH1A1 enzyme) was less than 500 nM.

Work on `COc1ccc2ncc(C(=O)N3C[C@@H](C)O[C@@H](C)C3)c(N3CCC4(CC3)OCCO4)c2c1` [Example 33, ((2S*,6R*)-2,6-dimethylmorpholino)(6-methoxy-4-(1,4-dioxa-8-azaspiro[4.5]decan-8-yl)quinolin-3-yl)methanone] yielded an IC50 (MIA PaCa-2 cells) greater than 10000 nM and an IC50 (ALDH1A1 enzyme) of 1000 to 10000 nM.

In the case of `N#CC1(c2ccccc2)CCN(c2c(C(=O)N3CC(O)C3)cnc3ccc(F)cc23)CC1` [Cpd. 326, 1-(6-fluoro-3-(3-hydroxyazetidine-1-carbonyl)quinolin-4-yl)-4-phenylpiperidine-4-carbonitrile], the IC50 (MIA PaCa-2 cells) is reported as 1000 to 10000 nM and the IC50 (ALDH1A1 enzyme) is reported as less than 500 nM.

With `O=C(c1cnc2ccc(F)cc2c1N1CCC2(CC1)OCCO2)N1CCN(S(=O)(=O)N2CCCC2)CC1` [Example 153, (6-fluoro-4-(1,4-dioxa-8-azaspiro[4.5]decan-8-yl)quinolin-3-yl)(4-(pyrrolidin-1-ylsulfonyl)piperazin-1-yl)methanone] the IC50 (MIA PaCa-2 cells) was greater than 10000 nM and the IC50 (ALDH1A1 enzyme) was less than 500 nM.

In the case of `CS(=O)(=O)C1CCN(C(=O)c2cnc3ccc(Cl)cc3c2-c2ccc(C3(C#N)CC3)cc2)CC1` [Example 295, 1-(4-(6-chloro-3-(4-(methylsulfonyl)piperidine-1-carbonyl)quinolin-4-yl)phenyl)cyclopropanecarbonitrile], the IC50 (MIA PaCa-2 cells) is reported as less than 500 nM and the IC50 (ALDH1A1 enzyme) is reported as less than 500 nM.

For `CCNC(=O)N1CCN(C(=O)c2cnc3cc(OC)ccc3c2N2CCC3(CC2)OCCO3)CC1` [Example 139, N-ethyl-4-(7-methoxy-4-(1,4-dioxa-8-azaspiro[4.5]decan-8-yl)quinoline-3-carbonyl)piperazine-1-carboxamide], the IC50 (MIA PaCa-2 cells) was 1000 to 10000 nM and the IC50 (ALDH1A1 enzyme) was less than 500 nM.

With `CCNC(=O)N1CCN(C(=O)c2cnc3ccc(F)cc3c2N2CCC(C)(C#N)CC2)CC1` [Example 89, 4-(4-(4-cyano-4-methylpiperidin-1-yl)-6-fluoroquinoline-3-carbonyl)-N-ethylpiperazine-1-carboxamide] the IC50 (MIA PaCa-2 cells) was greater than 10000 nM and the IC50 (ALDH1A1 enzyme) was less than 500 nM.

Compound `CS(=O)(=O)N1CCN(C(=O)c2cnc3ccc(F)cc3c2N2CCN(S(C)(=O)=O)CC2)CC1` [Cpd. 307, (6-fluoro-4-(4-(methylsulfonyl)piperazin-1-yl)quinolin-3-yl)(4-(methylsulfonyl)piperazin-1-yl)methanone] has an IC50 (MIA PaCa-2 cells) greater than 10000 nM and an IC50 (ALDH1A1 enzyme) of 1000 to 10000 nM.

In the case of `O=C(c1cnc2ccc(F)cc2c1N1CCC2(CC1)OCCO2)N1CCS(=O)(=O)CC1` [Example 53, (1,1-dioxidothiomorpholino)(6-fluoro-4-(1,4-dioxa-8-azaspiro[4.5]decan-8-yl)quinolin-3-yl)methanone], the IC50 (MIA PaCa-2 cells) is reported as greater than 10000 nM and the IC50 (ALDH1A1 enzyme) is reported as 500 to 1000 nM.

Work on `CN(C)C(=O)N1CCN(C(=O)c2cnc3ccc(Cl)cc3c2-c2ccc(C3(C#N)CC3)cc2)CC1` [Example 296, 4-(6-chloro-4-(4-(1-cyanocyclopropyl)phenyl)quinoline-3-carbonyl)-N,N-dimethylpiperazine-1-carboxamide] yielded an IC50 (MIA PaCa-2 cells) of less than 500 nM and an IC50 (ALDH1A1 enzyme) of less than 500 nM.

Work on `C[C@@H]1CN(C(=O)C2CC2)CCN1C(=O)c1cnc2ccc(F)cc2c1N1CCC(C)(C#N)CC1` [Example 239, (R)-1-(3-(4-(cyclopropanecarbonyl)-2-methylpiperazine-1-carbonyl)-6-fluoroquinolin-4-yl)-4-methylpiperidine-4-carbonitrile] yielded an IC50 (MIA PaCa-2 cells) of 1000 to 10000 nM and an IC50 (ALDH1A1 enzyme) of less than 500 nM.

`COc1ccc2ncc(C(=O)N3CCN(C(=O)C4CC4)CC3)c(N3CCS(=O)(=O)CC3)c2c1` [Example 29, (4-(cyclopropanecarbonyl)piperazin-1-yl)(4-(1,1-dioxidothiomorpholino)-6-methoxyquinolin-3-yl)methanone] showed an IC50 (MIA PaCa-2 cells) greater than 10000 nM and an IC50 (ALDH1A1 enzyme) greater than 10000 nM.

`O=C(C1CC1)C1CCN(C(=O)c2cnc3c(F)cc(F)cc3c2N2CCC3(CC2)OCCO3)CC1` [Example 192, (4-(cyclopropanecarbonyl)piperidin-1-yl)(6,8-difluoro-4-(1,4-dioxa-8-azaspiro[4.5]decan-8-yl)quinolin-3-yl)methanone] gave an IC50 (MIA PaCa-2 cells) of 500 to 1000 nM and an IC50 (ALDH1A1 enzyme) of less than 500 nM.

Compound `CS(=O)(=O)N1CCN(C(=O)c2cnc3c(F)cc(F)cc3c2N2CCC3(CC2)OCCO3)CC1` [Example 131, (6,8-difluoro-4-(1,4-dioxa-8-azaspiro[4.5]decan-8-yl)quinolin-3-yl)(4-(methylsulfonyl)piperazin-1-yl)methanone] has an IC50 (MIA PaCa-2 cells) of 1000 to 10000 nM and an IC50 (ALDH1A1 enzyme) of less than 500 nM.

`CCNC(=O)N1CCN(C(=O)c2cnc3cc(OC)c(OC)cc3c2N2CCC3(CC2)OCCO3)CC1` [Example 140, 4-(6,7-dimethoxy-4-(1,4-dioxa-8-azaspiro[4.5]decan-8-yl)quinoline-3-carbonyl)-N-ethylpiperazine-1-carboxamide] gave an IC50 (MIA PaCa-2 cells) greater than 10000 nM and an IC50 (ALDH1A1 enzyme) of less than 500 nM.

For `N#CC1(c2ccc(Cl)cc2)CCN(c2c(C(=O)N3CCN(C(=O)C4CC4)CC3)cnc3ccc(F)cc23)CC1` [Example 267, 4-(4-chlorophenyl)-1-(3-(4-(cyclopropanecarbonyl)piperazine-1-carbonyl)-6-fluoroquinolin-4-yl)piperidine-4-carbonitrile], the IC50 (MIA PaCa-2 cells) was 1000 to 10000 nM and the IC50 (ALDH1A1 enzyme) was less than 500 nM.
